For series [1], the system named is conscious, chronically instrumented dogs. Description: Acute graded infusion, hemodynamic effects in conscious chronically instrumented dogs (normal and advanced dilated cardiomyopathy). It counts as in vivo, dog. An excerpt: FIGS. 2a-2d show the dose response to rGLP-1 in normal conscious dogs and conscious dogs with advanced DCM compared to the response to the sympathomimetic, dobutamine.
FIG. 1 illustrates characteristic instrumentation of conscious, chronically instrumented dogs studied in the laboratory. Under sterile surgical technique, the animals are instrumented as indicated and allowed to recover fully from their surgery. At the time, they are taught to lie quietly on the experimental table before study. To determine if acute GLP-1 (7-36 amide) infusion is associated with hemodynamic effects in conscious chronically instrumented dogs, graded infusions for ten minutes at doses of 1.25, 2.5, 5, 10 and 20 pmol/kg/min in six normal dogs and in six dogs with advanced dilated cardiomyopathy were studied. The response of the graded infusion to the classic iontopic agent, Dobutamine, (2.5, 5, 7.5, 10 and 15μ/kg/min.) was compared. […] Nikolaidis, L A, Hentosz, T, Doverspike, A, et al., “Catecholamine stimulation is associated with impaired myocardial O2 utilization in heart failure,” Cardiovas. Res., 2002;53:392-404, incorporated by reference herein.

Series [2] has as its system conscious dogs with advanced DCM. Description: Myocardial substrate uptake and metabolic parameters in dogs with advanced DCM (Table 1). It is filed as in vivo, dog. The conditions noted are these: for Glucose myocardial uptake / Lactate myocardial uptake / NE (transmyocardial norepinephrine uptake) / NEFA myocardial uptake / Insulin/Glucagon: GLP-1 group; for Insulin/Glucagon: insulin pmol/L to glucagon pg/ml. Here is the method:
(§1) A 48 hour continuous intravenous infusion of GLP-1 (7-36 amide), (1.5 pmol/kg/min) in five normal dogs to determine the hemodynamic effect of chronic infusion in the absence of dilated cardiomyopathy was conducted. […] FIGS. 3-5 illustrates the effects of GLP-1 (7-36 amide) infusion (1.5 pmol/kg/min) intravenously for 48 hours in 20 conscious, chronically instrumented animals with advanced heart failure. These effects have been compared to similarly instrumented animals with advanced heart failure that received a control saline infusion of equal volume ([…]) illustrate the hemodynamic effects of chronic GLP-1 infusion in advanced DCM. GLP-1 (7-36 amide) infusion was associated with a restoration of left ventricular pressure, improvement in contractility, improvement in cardiac output, and reduction in heart rate and LVEDP. […] GLP-1 was associated with restoration of endothelial dependent vaso dilatation response to acetylcholine (FIG. 7). […] GLP-1 had […] increased plasma insulin levels in the setting of euglycemia.

The subject of series [3] is rat cardiomyocytes. As to conditions: in vitro; cited from earlier work.
Series [4] deals with adults presenting with severe acute myocardial infarction. Description: 72 hour continuous intravenous infusion in adults with severe acute myocardial infarction. It is filed as in vivo, human. As to the method:
The effects of continuous intravenous infusion of GLP-1 (1.5 pmol/kg/min) intravenously for 72 hours was studied in ten adults presenting with severe acute myocardial infarction. These were compared to eleven adults with similar large myocardial infarction (LVEF<35%) all of whom underwent percutaneous coronary intervention and subsequently were treated for 72 hours thereafter.

Series [5] relates to conscious dogs with advanced DCM. Description: 48 hour intravenous infusion in conscious dogs with advanced heart failure (DCM): hemodynamics, sympathetic activity, coronary vasodilation. It counts as in vivo, dog.
Text: FIGS. 3a-3d show the effects of r GLP-1 on LV systolic pressure, LV end diastolic pressure, LV dP/dt, and heart rate in conscious dogs with advanced DCM compared to saline control.
FIGS. 4a-4d show the effects of rGLP-1 on cardiac output, stroke volume, LV ejection fraction, systemic vascular resistance in conscious dogs with advanced DCM compared to saline control.
FIGS. 5a and 5b show the effects of rGLP-1 on stroke work and LV external efficiency in conscious dogs with advanced DCM compared to saline control.
FIGS. 6a and 6b show the effects of rGLP-1 on transmyocardial norepinephrine uptake as a reflection of sympathetic drive to the myocardium in conscious dogs with advanced DCM compared to saline controls.
FIGS. 7a and 7b show the effects of rGLP-1 on endothelial dependent coronary vasodilation in conscious dogs. Advanced DCM was associated with impaired coronary flow responses to acetylcholine. These responses were restored following 48-hour infusion of rGLP-1. The response to the non-endothelial dependent vasodilator, nitroglycerine was unaffected.
as §1

The subject of series [6] is normal dogs. In words: 48 hour continuous intravenous infusion in normal dogs, hemodynamic effect. It is filed as in vivo, dog. The conditions noted are these: 1.5 pmol/kg/min i.v. 48 hour. As to the method: as §1
The conditions of series [7]: cited from earlier work; for plasma insulin levels: hyperglycemia (10.4 mmol/l, 187 mg/dl), GIP 2.0, GLP-1 1.5 pmol·kg−1·min−1; for insulinotropic action: normal subjects during euglycemia.
For series [8], the system named is restrained rats. The conditions noted are these: rat, in vivo, sc; cited from earlier work.
For series [9] the following is noted: when GIP is administered; cited from earlier work.
The mark [10] stands for this setting: Baseline (before CHF and infusion).
Where [11] appears, read: advanced DCM, vs saline controls.
Setting [12] is: 1.5 pmol/kg/min i.v. 48 hours, advanced heart failure, vs saline.
[13] abbreviates: 48-hour infusion, advanced DCM, FIG. 7.
The mark [14] stands for this setting: graded infusions for ten minutes, 1.25-20 pmol/kg/min, normal dogs and dogs with advanced dilated cardiomyopathy.
[15] abbreviates: hyperglycemia-only control ~280.

Like-named read-outs stand apart in the source and are kept apart here.

On to `CC(CCc1ccc(O)cc1)NCCc1ccc(O)c(O)c1` (stereo not drawn) [Dobutamine, reference compound], for which the “hemodynamic effects of graded infusion” value is reported as “de-sensitized effects” in [1] (dogs in heart failure) and “predictable effects” in series [1] (normal dogs).

Regarding GLP-1 (7-36 amide), in [2] (24 hrs of infusion), the Glucose myocardial uptake was found to be 8.72 ± 1.05 µmol/min, the Lactate myocardial uptake is 3.61 ± 0.62 µmol/min, the “NE (transmyocardial norepinephrine uptake)” value was determined as 26.3 ± 3.1 pmol/min and the NEFA myocardial uptake came out at 4.53 ± 0.58 µmol/min. In [2] (48 hrs of infusion), the Glucose myocardial uptake came to 7.00 ± 0.94 µmol/min, the Lactate myocardial uptake stood at 4.04 ± 0.74 µmol/min, the “NE (transmyocardial norepinephrine uptake)” value was 30.5 ± 4.9 pmol/min and the NEFA myocardial uptake is 5.16 ± 0.73 µmol/min. Moreover, the Insulin/Glucagon in series [2] (48 hrs of infusion) was found to be 3.12 ± 0.24. Moreover, in series [2] (setting [10]), the Glucose myocardial uptake was 6.67 ± 1.22 µmol/min, the Lactate myocardial uptake stood at 4.78 ± 1.04 µmol/min, the “NE (transmyocardial norepinephrine uptake)” value was determined as 30.9 ± 4.8 pmol/min and the NEFA myocardial uptake stood at 5.23 ± 0.83 µmol/min. This molecule registered an Insulin/Glucagon in series [2] (Baseline) of 1.36 ± 0.21. Further, in series [2] (CHF (before infusion)), the Glucose myocardial uptake amounted to 3.44 ± 0.81 µmol/min, the Lactate myocardial uptake came out at 2.64 ± 0.91 µmol/min, the “NE (transmyocardial norepinephrine uptake)” value came to 18.7 ± 3.6 pmol/min and the NEFA myocardial uptake was 3.17 ± 0.61 µmol/min. The molecule further registered an Insulin/Glucagon in series [2] (CHF (before infusion)) of 1.79 ± 0.29. Further, the plasma glucagon levels entry in series [2] (advanced DCM) is “effective in reducing”. Moreover, in series [2] (setting [11]), the myocardial glucose uptake entry is given as “enhanced” and the “ratio of insulin (pmol/L) to glucagon (pg/ml)” value is listed as “significant increase”. Besides, in [2] (setting of euglycemia), the plasma insulin levels entry was “little effect”. In addition, in series [3], the cAMP entry is reported as “increases” and the myocyte contractility result is listed as “no effect”. In addition, the left ventricular hemodynamics result in [4] (1.5 pmol/kg/min i.v. 72 hours after PCI, vs standard care, FIG. 8) is recorded as “overall improvement”. Also, in series [4] (patients with large myocardial infarctions, 1.5 pmol/kg/min i.v. 72 hours), the left ventricular function entry was “improvement”. In [5] (setting [12]), the LVEDP entry is reported as “reduction”, the cardiac output result is recorded as “improvement”, the contractility entry is “improvement” and the heart rate result was “reduction”. Moreover, in [5] (setting [12]), the left ventricular pressure entry was “restoration”. Besides, in series [5] (setting [13]), the “endothelial dependent vasodilatation (coronary flow) response to acetylcholine” value is “restoration” and the “response to the non-endothelial dependent vasodilator nitroglycerine” value was “unaffected”. Further, the “endothelial dependent vasodilatation (coronary flow) response to acetylcholine” value in [5] (48-hour infusion, advanced DCM, FIG. 7, listed as rGLP-1) was “restored”. The myocardial sympathetic activity result in [5] (infusion compared to saline, FIG. 6) is given as “suppression”. Also, the “hemodynamic effects of chronic infusion” value in series [6] is given as “no significant hemodynamic effects”. For the same molecule, in [1] (setting [14]), the cardiac output result is on record as “no significant, dose related effects”; the heart rate entry was “no significant, dose related effects”; the “left ventricular dP/dt” value was “no significant, dose related effects”; the left ventricular pressure entry was “no significant, dose related effects”. In addition, in [1] (normal conscious dogs and conscious dogs with advanced DCM, FIGS. 2a-2d), the “acute hemodynamic effects (dose response)” value was “no acute hemodynamic effects”. The plasma insulin levels in series [7] (hyperglycemia-only control 47) is on record as around 333 μU/ml. Also, the plasma insulin levels in series [7] (setting [15]) is around 2000 pmol/L. Besides, the incretin potency comparison result in series [7] (insulinotropic action during hyperglycemia) is recorded as “more potent than GIP”. The insulinotropic action result in series [7] is reported as “insulinotropic”.

For the molecule exendin-4 [excendin 4], in series [8], the blood pressure result was “hypertension” and the heart rate result is reported as “tachycardia”.

In the case of “glucose-dependent insulinotropic polypeptide [GIP]”, in [9], the “increase of B-cell sensitivity to second-generation sulfonylurea” value is reported as 2 fold. The figures for the plasma insulin levels in series [7] (hyperglycemia-only control 47) and in [7] (setting [15]) were around 150 μU/ml and around 900 pmol/L, respectively. Further, the insulinotropic action entry in [7] is “not”.

The values are drawn from US20040097411A1, “Method of treating left ventricular dysfunction” (Allegheny-Singer Research Institute, priority 2002, published 2004).
